Test results: patent US8470970B2, “Mammalian sweet and amino acid heterodimeric taste receptors comprising T1R3 and T1R1” (The Regents of the University of California, priority 2001, dated 2013)

What was measured:
mouse T1R1+3 = target: T1, mouse T1R1+3 (Mus musculus, UniProt Q925D8+Q99PG6); assay: Calcium imaging of HEK-293 cells co-expressing promiscuous G proteins and mouse T1R1+3; type: cell-based; conditions: for shift of T1R1+3 dose response in the presence of IMP: 2.5 mM IMP; for activation of T1R1+3: amino acids 50 mM
T1 construct: expressed in transfected cells; host or cells: HEK-293 (PEAKrapid) cells co-expressing promiscuous G proteins
T1 sequence (Q99PG6 20-842 L120P/N244D/D281A/N309Y/P311T/S314P/H418Y): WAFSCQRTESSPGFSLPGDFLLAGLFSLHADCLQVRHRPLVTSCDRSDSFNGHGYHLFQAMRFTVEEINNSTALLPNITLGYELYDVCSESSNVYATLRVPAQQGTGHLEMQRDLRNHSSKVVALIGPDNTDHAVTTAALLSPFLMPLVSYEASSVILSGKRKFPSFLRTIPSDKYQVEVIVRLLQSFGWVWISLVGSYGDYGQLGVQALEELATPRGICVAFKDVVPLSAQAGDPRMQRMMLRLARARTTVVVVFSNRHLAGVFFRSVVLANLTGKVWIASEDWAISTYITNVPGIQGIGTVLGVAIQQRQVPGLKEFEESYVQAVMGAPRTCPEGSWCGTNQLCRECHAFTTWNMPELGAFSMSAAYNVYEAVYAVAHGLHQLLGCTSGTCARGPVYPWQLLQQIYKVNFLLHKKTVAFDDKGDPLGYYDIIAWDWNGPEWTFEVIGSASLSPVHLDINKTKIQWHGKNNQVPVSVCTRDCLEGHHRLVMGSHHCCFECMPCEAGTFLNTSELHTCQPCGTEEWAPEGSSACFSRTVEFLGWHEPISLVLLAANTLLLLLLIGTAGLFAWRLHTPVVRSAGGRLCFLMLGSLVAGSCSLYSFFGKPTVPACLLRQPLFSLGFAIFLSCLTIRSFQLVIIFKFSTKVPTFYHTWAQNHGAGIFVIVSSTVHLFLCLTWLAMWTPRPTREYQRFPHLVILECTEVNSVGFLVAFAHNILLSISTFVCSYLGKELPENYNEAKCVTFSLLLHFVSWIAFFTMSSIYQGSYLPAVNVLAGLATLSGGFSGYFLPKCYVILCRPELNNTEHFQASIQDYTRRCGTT
T1 sequence (Q925D8 21-858): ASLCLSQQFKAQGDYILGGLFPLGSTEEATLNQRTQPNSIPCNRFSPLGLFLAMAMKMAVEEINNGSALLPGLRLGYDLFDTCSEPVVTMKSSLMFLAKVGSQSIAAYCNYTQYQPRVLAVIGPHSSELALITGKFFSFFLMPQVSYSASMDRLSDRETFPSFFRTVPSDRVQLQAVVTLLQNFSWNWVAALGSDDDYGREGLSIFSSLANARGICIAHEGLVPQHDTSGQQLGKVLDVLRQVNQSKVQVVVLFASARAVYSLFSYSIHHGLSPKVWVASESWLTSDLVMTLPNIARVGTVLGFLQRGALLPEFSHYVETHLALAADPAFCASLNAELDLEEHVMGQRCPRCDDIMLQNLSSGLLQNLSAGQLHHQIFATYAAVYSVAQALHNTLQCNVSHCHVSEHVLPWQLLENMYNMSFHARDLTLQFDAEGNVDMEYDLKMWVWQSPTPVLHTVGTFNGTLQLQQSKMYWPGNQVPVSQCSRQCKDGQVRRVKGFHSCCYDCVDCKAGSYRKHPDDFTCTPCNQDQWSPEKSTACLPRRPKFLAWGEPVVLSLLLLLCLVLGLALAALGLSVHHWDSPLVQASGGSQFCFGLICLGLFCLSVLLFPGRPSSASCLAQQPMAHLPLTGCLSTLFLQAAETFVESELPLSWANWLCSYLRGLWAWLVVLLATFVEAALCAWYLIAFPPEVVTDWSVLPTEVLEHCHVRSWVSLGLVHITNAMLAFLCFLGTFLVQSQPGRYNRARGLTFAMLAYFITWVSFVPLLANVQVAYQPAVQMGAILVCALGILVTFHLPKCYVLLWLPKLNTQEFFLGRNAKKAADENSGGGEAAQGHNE
Method: (a): HEK-293 cells co-expressing promiscuous G proteins and heteromeric mouse T1R2+3 or T1R1+3 receptors were stimulated with L- and D-amino acids. […] (b)(c): Quantification of amino-acid responses for T1R2+3(b) and T1R1+3(c). […] Each column represents the mean±s.e.m. of at least ten independent determinations. […] All calcium measurements and quantifications were performed as described in the Methods and Nelson et al., Cell 106:381-390 (2001).
Mouse T1R1 and T1R3 were transfected alone or in combination and tested for stimulation by L-amino acids.
(§1) Cells were grown, maintained and transfected exactly as described earlier (Nelson et al., Cell, 106:381-390 (2001)). […] FURA-2 acetomethyl ester was used to measure intracellular calcium concentration ([Ca^2+]i), and assay conditions were identical to those previously described (Nelson et al., Cell, 106:381-390 (2001)). Responses were measured for 60 s and the fluorescence ratio at wavelengths of 340 and 380 nm (F340/F380) was used to measure [Ca^2+]i. For data analysis, response refers to the number of cells responding in a field of about 300 transfected cells. Cells were counted as responders if F340/F380 increased above 0.27 after addition of tastant. […] Dose-response functions were fitted using the logistical equation. Studies involving taster and non-taster alleles of T1R3 used constructs of complementary DNA coding for T1R3 from C57BL/6 and 129/Sv mice, respectively (Nelson et al., Cell, 106:381-390 (2001); Kitagawa et al., Biochem. Biophys. Res. Cummun., 283:236-242 (2001); Montmayeur et al., Nature Neurosci., 4:492-498 (2001); Max et al., Nature Genet., 28:58-63 (2001); Sainz et al., J. Neurochem., 77:896-903 (2001); Bachmanov et al., Chem. Senses, 26:925-933 (2001)).

[1] = target: T2, receptors containing human T1R1 (UniProt Q7RTX1+Q925D8)
T2 sequence (Q7RTX1 21-841): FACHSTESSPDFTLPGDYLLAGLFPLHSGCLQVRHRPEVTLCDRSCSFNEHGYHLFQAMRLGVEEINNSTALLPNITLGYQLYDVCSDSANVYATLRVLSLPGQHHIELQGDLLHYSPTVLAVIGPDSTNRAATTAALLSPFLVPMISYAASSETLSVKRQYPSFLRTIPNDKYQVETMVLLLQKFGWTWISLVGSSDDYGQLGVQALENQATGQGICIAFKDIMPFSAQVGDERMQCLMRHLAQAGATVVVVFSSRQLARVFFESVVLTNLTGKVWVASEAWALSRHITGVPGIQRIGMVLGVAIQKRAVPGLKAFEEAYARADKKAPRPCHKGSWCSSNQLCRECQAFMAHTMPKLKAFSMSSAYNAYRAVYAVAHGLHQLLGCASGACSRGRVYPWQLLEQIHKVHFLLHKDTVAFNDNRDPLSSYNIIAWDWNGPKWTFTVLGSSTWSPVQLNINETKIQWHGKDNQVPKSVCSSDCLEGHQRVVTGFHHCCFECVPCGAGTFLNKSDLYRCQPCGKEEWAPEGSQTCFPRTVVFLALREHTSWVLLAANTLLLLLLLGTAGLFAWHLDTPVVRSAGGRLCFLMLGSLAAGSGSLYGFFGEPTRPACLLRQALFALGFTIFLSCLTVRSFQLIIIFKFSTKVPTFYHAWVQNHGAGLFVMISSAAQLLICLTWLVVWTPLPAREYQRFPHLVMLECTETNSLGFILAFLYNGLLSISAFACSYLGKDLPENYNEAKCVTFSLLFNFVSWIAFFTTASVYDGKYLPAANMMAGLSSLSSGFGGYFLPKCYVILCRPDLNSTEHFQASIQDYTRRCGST
T2 sequence (Q925D8 21-858): T1 sequence (Q925D8 21-858)
Method: as §1

[2] = Behavioral thresholds for detection of sweet tastants in vivo

## C[C@H](N)C(=O)O [Ala, alanine]
Mouse T1R1+3
  shift of T1R1+3 dose response in the presence of IMP: at least one order of magnitude to the left
  activation of T1R1+3: activating

## C[C@@H](N)C(=O)O [D-Ala]
Mouse T1R1+3; amino acid 50 mM, IMP 2.5 mM
  activation of T1R1+3 by D-amino acid in the presence of IMP: exception

## N[C@@H](CCC(=O)O)C(=O)O [Glu, glutamate]
Mouse T1R1+3
  shift of T1R1+3 dose response in the presence of IMP: at least one order of magnitude to the left
[1]
  sensitivity of cells expressing human T1R1 relative to other amino acids: more than an order of magnitude more sensitive

## NCC(=O)O [Gly, glycine]
Mouse T1R1+3
  activation of T1R1+3: activates
Mouse T1R1+3; listed as glycine
  activation of T1R1+3: activating

## NC(CCP(=O)(O)O)C(=O)O [L-AP4]
Mouse T1R1+3
  potentiation of T1R1+3 response to the tastant by purine nucleotides: greatly potentiated

## N[C@@H](CCC(=O)O)C(=O)[O-].[Na+] [MSG, monosodium L-glutamate]
Mouse T1R1+3
  potentiation of T1R1+3 response to the tastant by purine nucleotides: greatly potentiated
[1]; low concentration, FIG. 11c
  activation of receptors containing human T1R1: robustly activates

## N[C@@H](CO)C(=O)O [Ser, serine]
Mouse T1R1+3
  shift of T1R1+3 dose response in the presence of IMP: at least one order of magnitude to the left
  activation of T1R1+3: activating

## N[C@@H](Cc1c[nH]c2ccccc12)C(=O)O [Trp]
Mouse T1R1+3
  activation of T1R1+3: no responses

## CC1=CC(=O)[N-]S(=O)(=O)O1.[K+] [acesulfame-K]
[2]
  in vivo threshold: ~0.5 mM

## NC(=O)CC[C@H](N)C(=O)O [glutamine]
Mouse T1R1+3
  activation of T1R1+3: activating

## O=C1NS(=O)(=O)c2ccccc21 [saccharin]
[2]
  in vivo threshold: ~0.5 mM

## OC[C@H]1O[C@@](CO)(O[C@H]2O[C@H](CO)[C@@H](O)[C@H](O)[C@H]2O)[C@@H](O)[C@@H]1O [sucrose]
[2]
  in vivo threshold: ~20 mM

## C[C@@H](O)[C@H](N)C(=O)O [threonine]
Mouse T1R1+3
  activation of T1R1+3: activating
